The values that follow come from BindingDB's records for doi:10.1016/s0960-894x(03)00648-6 (Ariad Pharmaceuticals, 2003).

By IC50 is commonly meant the midpoint of a concentration-inhibition curve. Lower therefore signals inhibition by little substance.

This experiment in a line: Inhibition of Src-mediated dentine resorption in rabbit-osteoclast assay.

In turn, `CN(C)CCNc1nc(Nc2ccccc2)c2ncn(C3CCCC3)c2n1` returned an IC50 of 9.81 µM.

For the molecule `O=P(O)(O)CP(=O)(O)CCCNc1nc(Nc2ccccc2)c2ncn(C3CCCC3)c2n1`, the concentration for half-maximal inhibition (IC50) was 5.23 µM.

Consider `N[C@H]1CC[C@H](Nc2nc(Nc3ccc(P(=O)(O)CP(=O)(O)O)cc3)c3ncn(C4CCCC4)c3n2)CC1`, for which it took 0.041 µM to reach half-maximal inhibition (IC50).

The molecule `O=P(O)(O)C(O)(CCCNc1nc(Nc2ccccc2)c2ncn(C3CCCC3)c2n1)P(=O)(O)O` yielded a half-maximal inhibitory concentration (IC50) of 48.2 µM.

For the molecule `N[C@H]1CC[C@H](Nc2nc(Nc3ccc(P(=O)(O)O)c(P(=O)(O)O)c3)c3ncn(C4CCCC4)c3n2)CC1`, half-maximal inhibition (IC50) was put at 15.7 µM.

For the molecule `N[C@H]1CC[C@H](Nc2nc(Nc3ccc(C(P(=O)(O)O)P(=O)(O)O)cc3)c3ncn(C4CCCC4)c3n2)CC1`, half-maximal inhibition (IC50) required 22 µM.

Molecule `N[C@H]1CC[C@H](Nc2nc(Nc3ccccc3)c3ncn(C4CCCC4)c3n2)CC1` gave an IC50 of 0.141 µM.
